From patent publication US20180132485A1, “USE OF HYDROXYAPATITE AS A CARRIER OF NUTRITIONAL ELEMENTS AND VEGETAL EXTRACTS FOR TREATING PLANTS” (NDG NATURAL DEVELOPMENT GROUP S.R.L., priority 2015, published 2018)

System: Agrobacterium vitis
Assay: Inhibition of growth of Agrobacterium vitis strains on PDA plates (diameters of inhibitory zones)
Assay type: cell-based
Details: 3% v/v; 6 strains; 28° C., 2-5 days
Procedure: The biological efficacy of the test agents was determined in terms of inhibition of the growth. To this aim 6 strains of Agrobacterium vitis from different growing areas worldwide, were grown in vitro. The strains of A. vitis, were inoculated on Petri dishes containing PDA (Potato Dextrose Agar), in the ratio of approximately 10 to 8 cells. After plating the bacteria, 5 holes (6 mm) were drilled in the substrate (one at the center of the plate and 4 equally spaced around the central hole). Each plate was filled with 20 microliters of test substance at the concentrations indicated; for each substance and concentration, 3 replies were set up. The central hole was filled with 20 microliters of sterile water, which represented the untreated control. The plates were incubated at 28° C., for 2-5 days.
After the expiration of the incubation period, for each tested strain and for each substance and concentration, the diameters of the inhibitory zones were considered (average of two orthogonal diameters of each inhibitory area). The collected data were subjected to analysis of variance ANOVA and comparison of averages with SNK test.

OCl [Sodium Hypochlorite]
inhibition of the growth (inhibitory zones): completely inhibited
